Measured values from patent US11713338B2, “Cyclic peptides multimers targeting α-4-β-7 integrin” (priority 2016, dated 2023).

Columns and labels:
[1] = biological target: T1, recombinant integrin α4β7 (Homo sapiens, UniProt P13612+P26010, DEL724-798); experiment: Integrin α4β7—MAdCAM-1 ELISA competition assay; assay type: binding; conditions: for ELISA Assay Ratio b1/b7: ratio of a4b1 to a4b7 ELISA IC50; for IC50: read-out: ELISA a4b7 Assay IC50
T1 construct: purchased R&D Systems 5397-A3-050
T1 sequence (P13612 34-970 limits assumed): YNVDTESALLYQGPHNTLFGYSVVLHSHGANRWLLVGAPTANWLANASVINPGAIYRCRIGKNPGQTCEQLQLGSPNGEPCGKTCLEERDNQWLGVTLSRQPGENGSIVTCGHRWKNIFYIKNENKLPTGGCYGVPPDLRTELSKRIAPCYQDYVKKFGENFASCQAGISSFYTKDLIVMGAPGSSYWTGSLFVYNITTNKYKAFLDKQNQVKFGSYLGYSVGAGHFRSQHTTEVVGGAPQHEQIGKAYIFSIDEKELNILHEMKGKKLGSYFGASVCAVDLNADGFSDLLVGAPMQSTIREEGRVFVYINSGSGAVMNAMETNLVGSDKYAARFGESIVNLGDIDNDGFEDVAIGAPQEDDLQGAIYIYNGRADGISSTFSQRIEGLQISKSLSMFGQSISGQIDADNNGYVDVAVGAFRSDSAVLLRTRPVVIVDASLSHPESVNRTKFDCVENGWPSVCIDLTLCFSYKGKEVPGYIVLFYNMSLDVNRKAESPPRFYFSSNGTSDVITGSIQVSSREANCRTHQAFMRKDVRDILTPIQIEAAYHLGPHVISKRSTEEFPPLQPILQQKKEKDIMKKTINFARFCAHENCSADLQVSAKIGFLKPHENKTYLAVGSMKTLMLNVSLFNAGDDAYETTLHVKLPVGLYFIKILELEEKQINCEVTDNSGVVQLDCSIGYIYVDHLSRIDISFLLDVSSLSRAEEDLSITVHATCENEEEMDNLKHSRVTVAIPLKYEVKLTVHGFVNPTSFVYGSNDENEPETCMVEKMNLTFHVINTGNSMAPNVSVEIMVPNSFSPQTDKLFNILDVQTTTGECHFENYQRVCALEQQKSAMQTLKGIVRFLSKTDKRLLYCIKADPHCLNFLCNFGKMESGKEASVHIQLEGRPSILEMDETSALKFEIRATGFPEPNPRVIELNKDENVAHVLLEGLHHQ
T1 sequence (P26010 20-723 limits assumed): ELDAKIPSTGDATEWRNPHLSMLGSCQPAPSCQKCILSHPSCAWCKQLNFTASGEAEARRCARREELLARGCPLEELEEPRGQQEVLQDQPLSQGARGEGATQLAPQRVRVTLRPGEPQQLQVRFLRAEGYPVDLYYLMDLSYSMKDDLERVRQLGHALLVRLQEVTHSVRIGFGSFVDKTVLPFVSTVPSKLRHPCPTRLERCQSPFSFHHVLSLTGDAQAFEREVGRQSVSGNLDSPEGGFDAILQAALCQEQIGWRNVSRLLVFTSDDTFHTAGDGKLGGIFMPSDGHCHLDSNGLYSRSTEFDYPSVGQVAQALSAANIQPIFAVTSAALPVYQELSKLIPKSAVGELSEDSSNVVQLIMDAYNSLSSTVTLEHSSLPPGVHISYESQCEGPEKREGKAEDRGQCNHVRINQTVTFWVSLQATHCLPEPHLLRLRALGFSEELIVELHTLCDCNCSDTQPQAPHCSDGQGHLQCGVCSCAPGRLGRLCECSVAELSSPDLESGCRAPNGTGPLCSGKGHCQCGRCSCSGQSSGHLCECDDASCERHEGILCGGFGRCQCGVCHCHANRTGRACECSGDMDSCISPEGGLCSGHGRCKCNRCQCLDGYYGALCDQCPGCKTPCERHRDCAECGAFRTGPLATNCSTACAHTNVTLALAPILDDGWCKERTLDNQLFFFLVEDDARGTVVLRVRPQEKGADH

[2] = biological target: T2, recombinant integrin α4β1 (Homo sapiens, UniProt P05556+P13612); experiment: Integrin α4β1—VCAM-1 competition ELISA; assay type: binding; conditions: read-out: ELISA a4b1 Assay IC50
T2 construct: purchased R&D Systems 5397-A3-050
T2 sequence (P05556 21-728 limits assumed, one chain of several): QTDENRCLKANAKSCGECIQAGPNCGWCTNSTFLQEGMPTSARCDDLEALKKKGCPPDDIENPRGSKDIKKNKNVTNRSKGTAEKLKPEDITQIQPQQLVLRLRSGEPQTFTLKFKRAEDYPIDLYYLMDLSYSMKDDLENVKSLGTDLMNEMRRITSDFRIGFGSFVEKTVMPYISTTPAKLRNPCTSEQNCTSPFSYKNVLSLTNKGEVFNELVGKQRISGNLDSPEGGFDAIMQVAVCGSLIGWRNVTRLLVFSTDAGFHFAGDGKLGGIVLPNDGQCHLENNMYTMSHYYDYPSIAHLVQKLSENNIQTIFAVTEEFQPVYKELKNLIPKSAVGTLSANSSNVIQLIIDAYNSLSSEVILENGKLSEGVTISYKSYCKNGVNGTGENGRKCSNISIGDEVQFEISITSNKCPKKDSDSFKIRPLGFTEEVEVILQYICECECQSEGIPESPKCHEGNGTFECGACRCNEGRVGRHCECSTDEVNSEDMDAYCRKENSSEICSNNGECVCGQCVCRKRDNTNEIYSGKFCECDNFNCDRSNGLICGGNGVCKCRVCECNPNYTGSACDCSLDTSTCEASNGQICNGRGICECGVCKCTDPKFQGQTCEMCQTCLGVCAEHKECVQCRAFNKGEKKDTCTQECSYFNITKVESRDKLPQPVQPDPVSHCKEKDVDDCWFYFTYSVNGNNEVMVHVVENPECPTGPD
Method: Integrin α4β1—VCAM-1 Competition ELISA
The plate was incubated at 4° C. overnight. […] The plate was then incubated for 1 hour at room temperature. The plate was washed three times with wash buffer (50 mM Tris, 100 mM NaCl, 1 mM MnCl2, 0.05% Tween). To each well, 50 μl of compound diluted in assay buffer was added by transfer from a compound serial dilution plate. […] The plate was incubated at room temperature with shaking (300 rpm) for 2 hours to reach binding equilibrium. Then the plate was washed three times in wash buffer and 100 μl anti-human IgG Fc specific-HRP (Abcam, Ab97225) diluted at 1:2000 in assay buffer was added to each well. The plate was incubated at room temperature for 1 hour under agitation.

| SMILES | ELISA Assay Ratio b1/b7 [1] | IC50 [1] | IC50 [2] |
| --- | --- | --- | --- |
| CC(C)C[C@@H]1NC(=O)[C@H]2CCCCN2C(=O)[C@@H]2CCCN2[C@H](C(=O)NC(C)(C)C)[C@H](C)NC(=O)[C@H]([C@@H](C)O)NC(=O)[C@H](CC(=O)O)NC1=O [Compound 51] | 3.3 | 31 nM | 102 nM |
| CC(C)C[C@@H]1NC(=O)[C@H](Cc2ccc(O)cc2)NC(=O)[C@@H]2CCCN2[C@H](C(=O)NC(C)(C)C)[C@H](C)NC(=O)[C@H](C(C)(C)S)NC(=O)[C@H](CC(=O)O)NC1=O [Compound 55] | 1.1 | 113 nM | 119 nM |
| CC(C)C[C@@H]1NC(=O)[C@@H]2C[C@@H](OCc3ccccc3)CN2C(=O)[C@@H]2CCCN2[C@H](C(=O)NC(C)(C)C)[C@H](C)NC(=O)[C@H]([C@@H](C)O)NC(=O)[C@H](CC(=O)O)NC1=O [Compound 57] | 2.5 | 59 nM | 148 nM |
| CC(C)C[C@@H]1NC(=O)[C@@H](CCCN(C)C)NC(=O)[C@@H]2CCCN2[C@H](C(=O)NC(C)(C)C)[C@H](C)NC(=O)[C@H]([C@@H](C)O)NC(=O)[C@H](CC(=O)O)NC1=O [Compound 83] | 6.9 | 179 nM | 1230 nM |
| CC(C)C[C@@H]1NC(=O)C2(CCCC2)NC(=O)[C@@H]2CCCN2[C@H](C(=O)NC(C)(C)C)[C@H](C)NC(=O)[C@H]([C@@H](C)O)NC(=O)[C@H](CC(=O)O)NC1=O [Compound 88] | 14.9 | 11 nM | 166 nM |
| CC(C)C[C@@H]1NC(=O)C2(Cc3ccccc3C2)NC(=O)[C@@H]2CCCN2[C@H](C(=O)NC(C)(C)C)[C@H](C)NC(=O)[C@H]([C@@H](C)O)NC(=O)[C@H](CC(=O)O)NC1=O [Compound 89] | 14.4 | 16 nM | 232 nM |
| CC(C)C[C@@H]1NC(=O)[C@H](C2CCCCC2)NC(=O)[C@@H]2CCCN2[C@H](C(=O)NC(C)(C)C)[C@H](C)NC(=O)[C@H]([C@@H](C)O)NC(=O)[C@H](CC(=O)O)NC1=O [Compound 91] | 14.5 | 126 nM | 1820 nM |
| CC(C)C[C@@H]1NC(=O)[C@H](Cc2csc(-c3ccccn3)n2)NC(=O)[C@@H]2CCCN2[C@H](C(=O)NC(C)(C)C)[C@H](C)NC(=O)[C@H]([C@@H](C)O)NC(=O)[C@H](CC(=O)O)NC1=O [Compound 95] | 2.4 | 125 nM | 303 nM |
| CC(C)C[C@@H]1NC(=O)[C@H](Cc2csc(-c3ccncc3)n2)NC(=O)[C@@H]2CCCN2[C@H](C(=O)NC(C)(C)C)[C@H](C)NC(=O)[C@H]([C@@H](C)O)NC(=O)[C@H](CC(=O)O)NC1=O [Compound 97] | 2.5 | 124 nM | 311 nM |
| CC(C)C[C@@H]1NC(=O)CN(C)C(=O)[C@H](Cc2cccc(I)c2)NC(=O)[C@@H]2CCCN2[C@H](C(=O)NC(C)(C)C)[C@H](C)NC(=O)[C@H]([C@@H](C)O)NC(=O)[C@H](CC(=O)O)NC1=O [Compound 106] | 18.7 | 59 nM | 1110 nM |
| CC(C)C[C@@H]1NC(=O)CN(C)C(=O)[C@H](Cc2ccc(I)cc2)NC(=O)[C@@H]2CCCN2[C@H](C(=O)NC(C)(C)C)[C@H](C)NC(=O)[C@H]([C@@H](C)O)NC(=O)[C@H](CC(=O)O)NC1=O [Compound 107] | 16.0 | 150 nM | 2390 nM |
| CC(C)C[C@@H]1NC(=O)[C@@H](CCCCN)NC(=O)[C@H](Cc2ccc(-c3ccccc3)cc2)NC(=O)[C@@H]2CCCN2[C@H](C(=O)NC(C)(C)C)[C@H](C)NC(=O)[C@H]([C@@H](C)O)NC(=O)[C@H](CC(=O)O)NC1=O [Compound 110] | 21.3 | 185 nM | 3920 nM |
| CC(C)C[C@@H]1NC(=O)CN(C)C(=O)[C@H](Cc2ccc(-c3ccccc3)cc2)NC(=O)[C@@H]2CCCN2[C@H](C(=O)NC(C)(C)C)[C@H](C)NC(=O)[C@H]([C@@H](C)O)NC(=O)[C@H](CC(=O)O)NC1=O [Compound 116] | 8.4 | 166 nM | 1380 nM |
| CC(C)C[C@@H]1NC(=O)CN(C)C(=O)[C@H](Cc2cccc3ccccc23)NC(=O)[C@@H]2CCCN2[C@H](C(=O)NC(C)(C)C)[C@H](C)NC(=O)[C@H]([C@@H](C)O)NC(=O)[C@H](CC(=O)O)NC1=O [Compound 117] | 8.7 | 158 nM | 1380 nM |
| CC(C)C[C@@H]1NC(=O)[C@@H](CCCCN)NC(=O)[C@H](Cc2ccc(O)cc2)NC(=O)[C@@H]2CCCN2[C@H](C(=O)NC(C)(C)C)[C@H](C)NC(=O)[C@H]([C@@H](C)O)N(C)C(=O)[C@H](CC(=O)O)NC1=O [Compound 121] | 11.4 | 192 nM | 2190 nM |
| COc1ccc(C[C@@H]2NC(=O)[C@@H]3CCCN3[C@H](C(=O)NC(C)(C)C)[C@H](C)NC(=O)[C@H]([C@@H](C)O)NC(=O)[C@H](CC(=O)O)NC(=O)[C@H](CC(C)C)NC(=O)[C@H]3CCCN3C2=O)cc1OC [Compound 127] | 7.8 | 25 nM | 196 nM |
| CC(C)C[C@@H]1NC(=O)[C@H]2CCCCN2C(=O)[C@H](Cc2cscn2)NC(=O)[C@@H]2CCCN2[C@H](C(=O)NC(C)(C)C)[C@H](C)NC(=O)[C@H]([C@@H](C)O)NC(=O)[C@H](CC(=O)O)NC1=O [Compound 131] | 3.1 | 26 nM | 80 nM |
| CC(C)C[C@@H]1NC(=O)[C@H]2CCCCN2C(=O)[C@H](Cc2ccccc2I)NC(=O)[C@@H]2CCCN2[C@H](C(=O)NC(C)(C)C)[C@H](C)NC(=O)[C@H]([C@@H](C)O)NC(=O)[C@H](CC(=O)O)NC1=O [Compound 133] | 5.3 | 15 nM | 80 nM |
| COc1ccccc1-c1ccccc1C[C@@H]1NC(=O)[C@@H]2CCCN2[C@H](C(=O)NC(C)(C)C)[C@H](C)NC(=O)[C@H]([C@@H](C)O)NC(=O)[C@H](CC(=O)O)NC(=O)[C@H](CC(C)C)NC(=O)[C@H]2CCCCN2C1=O [Compound 135] | 4.9 | 24 nM | 119 nM |
| COc1cccc(-c2ccccc2C[C@@H]2NC(=O)[C@@H]3CCCN3[C@H](C(=O)NC(C)(C)C)[C@H](C)NC(=O)[C@H]([C@@H](C)O)NC(=O)[C@H](CC(=O)O)NC(=O)[C@H](CC(C)C)NC(=O)[C@H]3CCCCN3C2=O)c1 [Compound 136] | 6.6 | 32 nM | 209 nM |
| CC(C)C[C@@H]1NC(=O)[C@H]2CCCCN2C(=O)[C@H](Cc2ccc(-c3ccccc3)cc2)NC(=O)[C@@H]2CCCN2[C@H](C(=O)NC(C)(C)C)[C@H](C)NC(=O)[C@H]([C@@H](C)O)NC(=O)[C@H](CC(=O)O)NC1=O [Compound 138] | 5.0 | 24 nM | 118 nM |
